# Measured values reported in patent US20100216693A1, “COMPOSITIONS AND METHODS OF TREATING DIABETES” (priority 2005, published 2010).
# Like-named read-outs stand apart in the source and are kept apart here.
# Columns and labels:
# [1] = target: T1, insulin-insulin interaction (Homo sapiens, UniProt P01308); experiment: SPR: effect of substances mixed with insulin in solution on insulin-insulin interaction; format: binding; settings: for effect of additive on insulin-insulin interaction: pH 5, insulin 10 μM, zinc sulfate in molar ratios higher than insulin, EDTA up to 10 μM
# T1 construct: 28; purchased Novo Nordisk A/S, Denmark Actrapid
# Method: BiacorA Biacore 3000 instrument was employed for the interaction measurements based on surface plasmon resonance (SPR). Interaction analyses were performed at 25° C. in 10 mM Na-citrate buffers pH 3, 4, 5, 10 mM bis-Tris, pH 6, and 10 mM Tris/HC1, pH 7, all buffers containing 100 mM NaCl and 0.005% 5P20. Flow rates for the binding analyses were kept at 20 μl/min. […] Insulin was immobilized on a carboxymethyl-modified dextran surface via both amine and carboxyl coupling, using the surface thiol method, in two different lanes of Biacore CM5 chips. The immobilization was carried out according to the procedure described in the kits. In brief, the sensor chip surface was first washed with 4 M LiCl/HBS for 1 min and then with 0.2% SP20/HBS for 1 mM. The surface was activated according to standard procedure with an injection of 0.05 M NHS/0.2 M EDC for 7 min. Desalted insulin solution was diluted in acetate buffer, pH 4.5, to 20 μg/ml and injected at 50/min for different time intervals. For surface thiol coupling, the surface was first activated with 0.05 M NHS/0.2 M EDC for 2 min followed by a 3 min injection of 40 mM cystamine dihydrochloride and then 0.1 M DTE for 3 min. […] The mixture was incubated for 10 mM at room temperature and excess PDEA was removed on a NAP-10 column. The purified PDEA ligand was injected for 7 min, soon after DTE, and finally the surface was washed with 20 mM PDEA in 0.1 M sodium acetate, 1.0 M NaCl. For quick regeneration of the surface, 2 M guanidine-HC1, pH 6.4, was employed. For controls, lanes activated and deactivated according to the standard procedures were used. For subtraction of noise from the data, running buffer only was injected to all surfaces. For the C-terminal attachment, surface-thiol coupling to 4000-5000 RU was used, and for N-terminal attachment, amine coupling to 800-1000 RU as achieved on different CM5 chips. However for kinetic analysis immobilization was carried out in a controlled condition and around 1000 RU for C-terminal and 400 RU for N-terminal coupling were immobilized. A surface activated with EDC/NHS and deactivated with ethanolamine was used as a control surface for N-terminally immobilized insulin and a surface treated with EDC/NHS, cysteine/DTE and finally deactivated with PDEA-NaCl was used as a control for C-terminally immobilized insulin. Biacore data were analyzed with Bia-evaluation software 4.1. All calculations based on numerical approaches, including simulations and global curve fitting for estimates of active concentrations, were performed with IGOR Pro (version 4.01.A, WaveMetrics, Inc.). However, C-peptide, mixed with insulin in solution, influences the insulin-insulin monomer interactions measured above. […] This elevated interaction can be seen at different pH from 3-7. The phenomenon of more pronounced interaction was clearer when concentrations higher than 0.5 μM were used then below 0.5 μM. […] All concentrations were run in triplicates and in random order.
# immobilized insulin = target: T2, immobilized insulin (Homo sapiens, UniProt P01308); experiment: SPR (Biacore 3000) insulin-insulin interaction, free insulin over chip-immobilized insulin; format: binding; settings: for Kd: C-terminally immobilized insulin, global fit, analyte with two binding sites competing for one site, insulin 0.25-10 μM
# T2 construct: 28; purchased Novo Nordisk A/S, Denmark Actrapid
# Method: BiacorA Biacore 3000 instrument was employed for the interaction measurements based on surface plasmon resonance (SPR). Interaction analyses were performed at 25° C. in 10 mM Na-citrate buffers pH 3, 4, 5, 10 mM bis-Tris, pH 6, and 10 mM Tris/HC1, pH 7, all buffers containing 100 mM NaCl and 0.005% 5P20. Flow rates for the binding analyses were kept at 20 μl/min. Insulin was desalted and buffer was exchanged on NAP 10 columns from Amersham Biosciences.
# Working insulin solution was prepared after removing the excess of zinc sulfate, meta-cresol and other salts from the original solution by passing through a NAP 10 column in the desired buffer for experiments. The desalted insulin was diluted to 1 mM, aliquoted and stored at −20° C.
# Insulin was immobilized on a carboxymethyl-modified dextran surface via both amine and carboxyl coupling, using the surface thiol method, in two different lanes of Biacore CM5 chips. The immobilization was carried out according to the procedure described in the kits. In brief, the sensor chip surface was first washed with 4 M LiCl/HBS for 1 min and then with 0.2% SP20/HBS for 1 mM. The surface was activated according to standard procedure with an injection of 0.05 M NHS/0.2 M EDC for 7 min. Desalted insulin solution was diluted in acetate buffer, pH 4.5, to 20 μg/ml and injected at 50/min for different time intervals. For surface thiol coupling, the surface was first activated with 0.05 M NHS/0.2 M EDC for 2 min followed by a 3 min injection of 40 mM cystamine dihydrochloride and then 0.1 M DTE for 3 min. At the same time, 2-(2-pyridinyldithio)ethaneamine hydrochloride (PDEA) insulin was prepared by dissolving 0.5 mg insulin in 0.5 ml 0.1 M MES, adding to it 0.25 ml of (15 mg/ml) PDEA in 0.1 M MES, pH 5, and 25 μl 0.4M EDC. The mixture was incubated for 10 mM at room temperature and excess PDEA was removed on a NAP-10 column. The purified PDEA ligand was injected for 7 min, soon after DTE, and finally the surface was washed with 20 mM PDEA in 0.1 M sodium acetate, 1.0 M NaCl. For quick regeneration of the surface, 2 M guanidine-HC1, pH 6.4, was employed. For controls, lanes activated and deactivated according to the standard procedures were used. For subtraction of noise from the data, running buffer only was injected to all surfaces.
# For the C-terminal attachment, surface-thiol coupling to 4000-5000 RU was used, and for N-terminal attachment, amine coupling to 800-1000 RU as achieved on different CM5 chips. However for kinetic analysis immobilization was carried out in a controlled condition and around 1000 RU for C-terminal and 400 RU for N-terminal coupling were immobilized. […]
# Biacore data were analyzed with Bia-evaluation software 4.1. […]
# insulin = target: T3, insulin (Homo sapiens, UniProt P01308); experiment: Non-denaturing nano-electrospray mass spectrometry of insulin, C-peptide and control peptides; format: binding; settings: ESI-MS
# T3 construct: 28; purchased Novo Nordisk A/S, Denmark Actrapid
# Method: For mass spectrometric analysis, preparation of concentrated insulin stock solution was performed essentially as described [Nettleton et al, 2000, Biophys J. 79:1053]. Briefly, insulin (NovoNordisk A/S, Denmark) was concentrated to 100 μM using ultrafiltration spin-filters (NanoSep, PallGellman, MWCO: 3000 Da). This stock solution was then buffer-exchanged to water, pH 5 (HCl), by extended dialysis. For all experiments, insulin and C-peptide stock solutions were diluted in water-HC1 (pH 5) to reach the indicated concentrations. C-peptide was prepared as a 746 μM stock solution in water and all control peptides were prepared similarly.
# Mass spectrometry data were recorded with a QTOF Ultima API instrument (Waters, Milford, Mass.) operated in the positive ion mode. Sample solutions were analyzed by nanoelectrospray from conductive borosilicate glass capillaries (Proxeon Biosystems A/S, Odense, Denmark). Instrument settings were not modified for the observation of non-covalent complexes, other than that the “cone” and the “RF-lens” settings were set to 90 and 50 V, respectively.
# The binding between insulin and C-peptide in the gas-phase was studied by non-denaturing electrospray mass spectrometry using a method analogous to that of Nettleton et al [Nettleton et al, 2000, Biophys J. 79:1053].
# [2] = s.c. injection of C-peptide plus soluble insulin (CI-day) vs insulin plus diluent (I-day), glucose clamp, Type 1 diabetic patients; format: in vivo, human
# Method: Apart from insulin they had no other medication. All patients received injections of soluble insulin before meals and intermediate-acting insulin at bedtime. Six patients had simplex retinopathy and two of these (nos. 4 and 8) also had microalbuminuaria. All subjects were informed of the purpose, nature and possible risks before giving their consent to participate in the study, which was approved by the local Ethics Committee. The experiments were carried out on two days separated by at least one week. The patients were admitted to the hospital at 8 p.m. in the evening before the study day. They received their last dose of insulin at 4-6 p.m. In order to clear the subcutaneous depots of insulin no intermediate-acting insulin was given at bedtime. Instead, an intravenous infusion of insulin was started at the time of admission. […] On the study day the investigation started at 7.30 a.m. after an overnight fast. A short teflon catheter was inserted into an antecubital vein for blood sampling. […] The injections were given with an automatic injection device (which allowed standardization of speed and depth) approximately 100 mm lateral to the umbilicus into the middle of the subcutaneous tissue, the depth of which was predetermined with ultrasound. After the injections plasma glucose was allowed to decrease to 3.5 mmol/l, whereafter it was maintained at 3.5-5 mmol/l using a variable glucose infusion (DeFronzo R, Tobin J, Andres R, American Journal of Physiology 237:[…]-[…], 1979) The patients were followed for 6 hours. Blood samples for the determination of plasma glucose, free insulin, C-peptide, FFA and glucagon were taken at timed intervals. […] Plasma free insulin was determined by radioimmunoassay after immediate polyethylene glycol precipitation (Arnquist H, Olsson P, von Schenk H, Clinical Chemistry 33:93-96, 1987). C-peptide (Heding L, Diabetologia 11:541-548, 1975) and glucagon were also analyzed by radioimmunoassay using a commercially available kit (MILAB, Malmö, Sweden). Plasma […], Greenberg […], Goetz F, Metabolism 35:122-125, 1986) was determined by a fluorometric method. Standard statistical methods including Wilcoxon's nonparametric test, Student's paired t-test and linear regression analyses were performed when applicable. Results are presented as mean values±SEM. […] The areas under the plasma insulin, and free fatty acid concentration curves were computed by trapezoidal integration.
# [3] = in vivo; cited from earlier work
# T1 sequence (P01308 25-54 limits assumed): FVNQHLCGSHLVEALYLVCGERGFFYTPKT
# T1 sequence (P01308 90-110 limits assumed): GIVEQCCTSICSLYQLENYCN
# T2 sequence (P01308 25-54 limits assumed): as the sequence (P01308 25-54 limits assumed) above
# T3 sequence (P01308 25-54 limits assumed): as above
molecule,measurement,setting,value
O=C(O)CN(CCN(CC(=O)O)CC(=O)O)CC(=O)O [EDTA],effect of additive on insulin-insulin interaction,[1],promoted insulin-insulin interaction
O=S(=O)([O-])[O-].[Zn+2] [zinc sulfate],effect of additive on insulin-insulin interaction,[1],diminished insulin interaction
"C-terminal pentapeptide: pentapeptide EGSLQ (SEQ ID NO. 2), residues 27-31 of native human C-peptide (Pentapeptide of C-peptide)",enhancement of insulin-insulin binding relative to native C-peptide,[1]; 1:1 molar ratio (FIG. 15),as equally effective as the native C-peptide
same,stimulation of SPR-measurable binding in mixture with insulin in the flow-through solution,[1]; Example 10,stimulated SPR-measurable binding
Human insulin,Kd,immobilized insulin; read-out: dissociation constant KD1 (slow off rate),2.71 µM
same,Kd,immobilized insulin; read-out: dissociation constant KD2 (rapid off rate),4.65 µM
same,lowest insulin solution concentration at which binding is noticeable,immobilized insulin; pH 5,0.05 µM
same,pH of highest (maximum) insulin-insulin binding interaction,immobilized insulin; pH range 3-7,5
same,insulin concentration at which dimerization is detectable,insulin,3 µM
same,insulin concentration at which higher polymers up to hexamers are detectable,insulin,30 µM
"I: soluble insulin (Humulin; 10U) and C-peptide diluent, injected s.c.",AUC for plasma FFA concentration 0-360 min,[2]; 0-360 min,129 ± 17 mmol·min/L
same,plasma FFA 10 min after the injections,[2]; 30 min after cessation of i.v. insulin infusion,0.80 ± 0.11 mmol/L
same,AUC for plasma FFA concentration 0-180 min,"[2]; after correction for the plasma free insulin area, p<0.01",55.6 ± 5.1 mmol·min/L
same,area under the plasma IRI curve (0-360 min),"[2]; human, in vivo",5847±430 mU/l×min
same,plasma glucose at the beginning of the glucose infusions,"[2]; human, in vivo",3.5 ± 0.05 mmol/L
same,plasma C-peptide at 360 min,[2]; mean±SEM,0.10 ± 0.02 nmol/L
same,patients requiring intravenous infusion of glucose to avoid hypoglycemia,[2]; nine patients,7 of 9
same,time of peak plasma insulin (IRI),[2]; s.c. insulin 10 U,88 ± 11 min
same,duration of glucose infusion,[2]; variable glucose infusion to avoid hypoglycemia,124 ± 28 min
Insulin Glulisine,action / pharmacokinetic profile compared with other rapid acting analogues,[3],pharmacokinetic profile similar to Lispro and Aspart
Lispro,effective duration,[3],4 to 6 h
same,onset of action,[3],5 to 15 min
same,peak action,[3],0.5 to 1.5 h
regular insulin: regular human insulin,effective duration,[3],8 to 10 h
same,onset of action,[3],30 to 60 min
same,peak action,[3],2 to 3 h
"zinc insulin (Lente): human insulin preparation, zinc insulin, with extended duration",effective duration,[3],12 to 20 h
same,onset of action,[3],120 to 240 min
same,peak action,[3],4 to 10 h
